Measured values published in US20230183309A1 (Dana-Farber Cancer Institute, Inc., priority 2019, published 2023).
“Also recorded” adds a separate entry of the source. Numbered stars: 1 amine (or outer) side, 2 acyl side, 3 side chain; on linkers, the order of the positions; unused ones are H or OH. Bridge positions count the residues as written; N and C are the ends. Square brackets hold non-standard residues; d marks the D form. code # = α,α-bis(4′-pentenyl)glycine, C=CCCCC(CCCC=C)(N[*:1])C(=O)[*:2]; R8 = C=CCCCCCC[C@@](C)(N)C(=O)O; S8 = C=CCCCCCC[C@](C)(N)C(=O)O; Aib = CC(C)(N)C(=O)O

Experiments:
B6 mice = assay: Glucose tolerance test in fasted mice; format: in vivo, mouse; settings: 10 nmol/kg IP, glucose 2 g/kg IP 30 minutes later
Description: To evaluate whether the relative proteolytic stability of SAH-GLP-1(16,23,30) translated into a functional benefit in vivo, glucose tolerance tests in mice were performed. Mice (n=8 per arm) were fasted overnight and administered the corresponding panel of peptides at 10 nmol/kg intraperitoneally followed by a glucose bolus (2 g/kg) 30 minutes later, and then serial serum glucose monitoring was performed over time.
In vivo efficacy testing of SAH-GLP-1 peptides. Male B6 and db/db mice (JAX 000697) at 10-12 weeks of age were housed (5 mice/cage) at a constant room temperature of 24° C. on a normal day-light cycle and provided a standard diet ad libitum. After one week of acclimatization, B6 mice (n=8 per treatment arm) were fasted for 16 hours overnight and the following morning baseline blood glucose levels were measured (Onetouch), followed by intraperitoneal (IP) injection of vehicle (saline) or the indicated peptide (10 nmol/kg). Thirty minutes later, the mice were treated with a bolus IP injection of glucose (2 g/kg, 20% aqueous solution), followed by serial blood glucose monitoring at 0, 15, 30, 60, and 120 minutes. To evaluate the comparative anti-hyperglycemic effects of peptides in db/db mice (n=8 per treatment arm), vehicle (saline) or the indicated peptide (10 nmol/kg) was injected IP and blood glucose levels monitored at 0, 15, 30, 60, and 720 minutes.

[1] = mouse
Description: Plasma Stability Testing. Peptide stability was tested in freshly drawn mouse plasma collected in lithium heparin tubes. Peptide plasma incubations were set up with 500 µL of plasma spiked with 10 µM of the individual peptides. Samples were gently shaken in an orbital shaker at 37° C., and 20 µL aliquots were removed at 0, 5, 15, 30, 60, 120, and 200 minutes and added to 150 µL of a mixture containing 50% water/50% acetonitrile to stop further degradation of the peptides. The samples were allowed to sit on ice for the duration of the assay and then transferred to a MultiScreen Solvinert 0.45 µm low-binding hydrophilic PTFE plate (Millipore). The filtrate was directly analyzed by LC/MS/MS using a Thermo BetaSil column, 2.1 × 50 mm, 5 µm. […] The percentage of remaining peptide was determined by the decrease in chromatographic peak area and log transformed to calculate the half-life.

proteinase K = target: T1, proteinase K (Parengyodontium album, UniProt P06873); format: in vitro ADME
T1 construct: purchased New England Biolabs

human GLP-1 receptor = human GLP-1 receptor (Homo sapiens, UniProt P43220); settings: GFP-GLP-1R U2OS cells; FIG. 6A, 6B (lower dose-range 1 µM, 100 nM, 10 nM)
[2] = target: GLP-1R expressed on CHO-K1 cells (cAMP Hunter eXpress GLP1R CHO-K1 GPCR Assay, Eurofins, 95-0062E2CP2S) (UniProt P43220 24-463); assay: cell-based or functional assay

T1 sequence (P06873 106-384): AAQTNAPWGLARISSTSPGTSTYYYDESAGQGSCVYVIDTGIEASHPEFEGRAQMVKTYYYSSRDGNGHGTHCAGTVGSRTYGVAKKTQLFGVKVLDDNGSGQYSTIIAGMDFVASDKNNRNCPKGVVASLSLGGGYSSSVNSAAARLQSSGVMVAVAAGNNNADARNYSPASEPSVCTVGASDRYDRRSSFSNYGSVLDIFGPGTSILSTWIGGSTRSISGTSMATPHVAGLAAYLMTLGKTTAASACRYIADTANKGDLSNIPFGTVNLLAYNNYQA
Chain of human GLP-1 receptor (P43220 24-463): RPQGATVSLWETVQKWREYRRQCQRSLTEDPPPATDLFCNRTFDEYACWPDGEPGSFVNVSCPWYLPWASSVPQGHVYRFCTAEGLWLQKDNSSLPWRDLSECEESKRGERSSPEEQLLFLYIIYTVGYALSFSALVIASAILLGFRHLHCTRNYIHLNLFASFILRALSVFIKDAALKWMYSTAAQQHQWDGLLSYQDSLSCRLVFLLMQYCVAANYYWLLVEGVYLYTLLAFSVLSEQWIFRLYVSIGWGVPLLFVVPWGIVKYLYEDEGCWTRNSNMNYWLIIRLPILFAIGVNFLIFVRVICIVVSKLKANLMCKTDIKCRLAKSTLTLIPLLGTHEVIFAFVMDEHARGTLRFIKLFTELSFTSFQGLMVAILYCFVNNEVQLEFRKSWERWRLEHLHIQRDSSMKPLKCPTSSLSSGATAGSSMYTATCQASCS

Q: Which “control of induced hyperglycemia in glucose tolerance test” value (B6 mice) does the source give for `CC[C@H](C)[C@H](NC(=O)[C@H](Cc1ccccc1)NC(=O)[C@H](CCC(=O)O)NC(=O)[C@H](CCCCN)NC(=O)[C@H](C)NC(=O)[C@H](C)NC(=O)[C@H](CCC(N)=O)NC(=O)CNC(=O)[C@H](CCC(=O)O)NC(=O)[C@H](CC(C)C)NC(=O)[C@H](Cc1ccc(O)cc1)NC(=O)[C@H](CO)NC(=O)[C@H](CO)NC(=O)[C@@H](NC(=O)[C@H](CC(=O)O)NC(=O)[C@H](CO)NC(=O)[C@@H](NC(=O)[C@H](Cc1ccccc1)NC(=O)[C@@H](NC(=O)CNC(=O)[C@H](CCC(=O)O)NC(=O)[C@H](C)NC(=O)[C@@H](N)Cc1c[nH]cn1)[C@@H](C)O)[C@@H](C)O)C(C)C)C(=O)N[C@@H](C)C(=O)N[C@@H](Cc1c[nH]c2ccccc12)C(=O)N[C@@H](CC(C)C)C(=O)N[C@H](C(=O)N[C@@H](CCCCN)C(=O)NCC(=O)N[C@@H](CCCNC(=N)N)C(N)=O)C(C)C` [GLP-1] here?
A: The value was “least effective”.

Q: Which “plasma half-life relative to semaglutide” value [1] does the source give for `CC[C@H](C)[C@@H]1NC(=O)[C@H](Cc2ccccc2)NC(=O)[C@H](CCC(=O)O)NC(=O)[C@H](CCCCN)NC(=O)[C@H](C)NC(=O)[C@H](C)NC(=O)C2(CCCC=CCCCCCC[C@@](C)(NC(=O)[C@H](CC(=O)O)NC(=O)[C@H](CO)NC(=O)[C@@H](NC(=O)[C@H](Cc3ccccc3)NC(=O)[C@@H](NC(=O)CNC(=O)[C@H](CCC(=O)O)NC(=O)C(C)(C)NC(=O)[C@@H](N)Cc3c[nH]cn3)[C@@H](C)O)[C@@H](C)O)C(=O)N[C@@H](CO)C(=O)N[C@@H](CO)C(=O)N[C@@H](Cc3ccc(O)cc3)C(=O)N[C@@H](CC(C)C)C(=O)N[C@@H](CCC(=O)O)C(=O)NCC(=O)N2)CCCC=CCCCCCC[C@@](C)(C(=O)N[C@@H](Cc2c[nH]c3ccccc23)C(=O)N[C@@H](CC(C)C)C(=O)N[C@H](C(=O)N[C@@H](CCCCN)C(=O)NCC(=O)N[C@@H](CCCNC(=N)N)C(N)=O)C(C)C)NC1=O` (stereo partly drawn) [SAH-GLP-1(16,23,30), HJEGTFTSD8SSYLEG#AAKEFIZWLVKGR] here?
A: Its value is “nearly double”.

Q: And the half-life ([1]; plasma)?
A: The half-life was 5.33 h.

Q: What about the “improvement of proteinase K half-life compared to the singly stapled peptides” value (proteinase K) of the same molecule?
A: The value was 2-7 fold.

Q: And the “improvement of proteinase K half-life compared to wild-type / control peptide” value (proteinase K)?
A: Its value is “over 20 fold”.

Q: And the half-life (proteinase K; proteinase K, 50 mM Tris-HCl, pH 7.4, peptides have the A8Aib substitution, read-out: t½ (half-life), proteinase K digestion, intact peptide by LCMS)?
A: Its half-life is 3.67 h.

Q: For `CC[C@H](C)[C@H](NC(=O)[C@H](Cc1ccccc1)NC(=O)[C@H](CCC(=O)O)NC(=O)[C@H](CCCCNC(=O)COCCOCCNC(=O)COCCOCCNC(=O)CC[C@H](NC(=O)CCCCCCCCCCCCCCCCC(=O)O)C(=O)O)NC(=O)[C@H](C)NC(=O)[C@H](C)NC(=O)[C@H](CCC(N)=O)NC(=O)CNC(=O)[C@H](CCC(=O)O)NC(=O)[C@H](CC(C)C)NC(=O)[C@H](Cc1ccc(O)cc1)NC(=O)[C@H](CO)NC(=O)[C@H](CO)NC(=O)[C@@H](NC(=O)[C@H](CC(=O)O)NC(=O)[C@H](CO)NC(=O)[C@@H](NC(=O)[C@H](Cc1ccccc1)NC(=O)[C@@H](NC(=O)CNC(=O)[C@H](CCC(=O)O)NC(=O)C(C)(C)NC(=O)[C@@H](N)Cc1cnc[nH]1)[C@@H](C)O)[C@@H](C)O)C(C)C)C(=O)N[C@@H](C)C(=O)N[C@@H](Cc1c[nH]c2ccccc12)C(=O)N[C@@H](CC(C)C)C(=O)N[C@H](C(=O)N[C@@H](CCCNC(=N)N)C(=O)NCC(=O)N[C@@H](CCCNC(=N)N)C(=O)NCC(=O)O)C(C)C` [semaglutide, reference compound], which “proteolysis by proteinase K (in words)” value (proteinase K; identical conditions as FIG. 7A, FIG. 7B) is on record?
A: The value was “rapidly proteolyzed; also recorded: rapid proteolysis”.

Q: With “HGEGTFTSD8SSYLEG#AAKEFIZWLVKGR (H-HGEGTFTSD[R8]SSYLEG[code #]AAKEFI[S8]WLVKGR-NH2; staple 10-17, 17-24) [SAH-GLP-1(A8G)(16,23,30)]” as the molecule, how does the “GLP-1R internalization activity compared with the corresponding unstapled / wild-type GLP-1 peptide” value (human GLP-1 receptor) read?
A: Its value is “more active”.

Q: With H-H[Aib]EGTFTSD[R8]SSYLEG[code #]AAKEFI[S8]WLVKGR-NH2 (staple 10-17, 17-24) [SAH-GLP-1(16,23,30) A8J] as the molecule, how does the “cAMP induction (cAMP Hunter eXpress luminescence assay), EC50” value [2] read?
A: The value was 0.16 nM.
